Data from PubChem BioAssay AID434934 (The Scripps Research Institute Molecular Screening Center, 2010).
Several values for one entry are separate records, joined by “and”; a condition that tells them apart may be missing. Equal values may be shown once. Activity calls are given as the source filed them.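 How the source made its calls: active means IC50 at or below 10 µM; inactive means IC50 above 10 µM.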

Tested on: NIH 3T3 viability, CellTiter-Glo ATP luminescence
Experiment: cytotoxicity in NIH 3T3 fibroblasts, late-stage follow-up, cytotoxicity control for TPT1 inhibitor project, cell-based, luminescence, dose response (AID 434934)

NS(=O)(=O)c1cc(C(=O)NC2CCSc3ccccc32)ccc1Cl (stereo not given)
IC50: > 79.4 µM (inactive)

OC(Cn1cncn1)(Cn1cncn1)c1ccc(F)cc1F
IC50: > 26.5 µM (inactive)

CC1=C(C#N)C(=O)N(C2CCS(=O)(=O)C2)C(=O)/C1=C\c1ccco1 (stereo not given)
IC50: 20.4 µM (inactive)

COc1ccc(OC)c(N2C(=O)/C(=C/c3ccco3)C(=O)NC2=S)c1
IC50: 73.9 µM (inactive)

Cc1ccc(N2C(=O)NC(=O)/C(=C\c3ccc([N+](=O)[O-])o3)C2=O)cc1
IC50: 23.2 µM (inactive)

NC(=O)c1cc[n+](CC2=C(C(=O)O)N3C(=O)[C@@H](NC(=O)C(c4ccccc4)S(=O)(=O)O)[C@H]3SC2)cc1 (stereo not given in full)
IC50: > 79.4 µM (inactive)

Cc1[nH]n(-c2ccc(S(=O)(=O)O)cc2)c(=O)c1N[N-]c1ccc(C2=CC(=O)/C(=N\[N-]c3ccc4c(S(=O)(=O)O)cc(S(=O)(=O)O)c(N)c4c3O)C=C2)cc1O.[Cu+].[Cu+]
IC50: 1.82 µM

Cc1ccccc1N1C(=O)/C(=C/c2ccco2)C(=O)NC1=S
IC50: 46.1 µM (inactive) and 34.3 µM (inactive)

Cc1cc(C)n(Cc2ccc(C(=O)NN=Cc3ccc(-c4ccc([N+](=O)[O-])cc4)o3)o2)n1
IC50: > 79.4 µM (inactive)

O=c1oc2c(O)c(O)cc3c(=O)oc4c(O)c(O)cc1c4c23
IC50: > 26.5 µM (inactive)
